Reference: US5767120A, “Tricyclic derivatives, compositions and methods of use” (Schering Corporation, priority 1995, dated 1998)

What was measured:
serum TNF = assay: Inhibition of LPS-Induced Serum TNF; type: in vivo, Mice (C57BI/6J males); conditions: Mus musculus, 1.5 h; 25 mg/kg orally or i.p. one hour before LPS (50 μg i.p.); serum 90 min after LPS; values may be subject to a wide margin of error
Protocol: In addition to the in vitro test described above, the following in vivo test was also performed on several of the compounds of the present invention.
2. In Vivo Study: Inhibition of LPS-Induced Serum TNF
1) Mice (C57BI/6J males, 6-8 weeks of age) are dosed with the indicated compound (dissolved in CMC suspension vehicle; compounds are given orally or i.p. one hour before LPS challenge).
3) Mice are bled 90 min after LPS challenge.
4) Sera are analyzed for TNF content by ELISA as described in J. Immunol.

[1] = Inhibition of LPS/Galactosaimine-Induced Lethality (septic shock); type: in vivo, Mice (C57BI/6J males); conditions: 25 mg/kg orally or i.p. one hour before LPS (100 ng) and d-galactosamine (8 mg) i.p.; survival 24 hours after challenge
Protocol: This test procedure is a standard test used to determine activity against septic shock.
3. In Vivo Study: Inhibition of LPS/Galactosaimine-Induced Lethality
1) Mice (C57BI/6J males, 6-8 weeks of age) are dosed with the indicated compound (dissolved in CMC suspension vehicle; compounds are given orally or i.p. one hour before challenge with LPS and d-galactosamine).
2) Mice are challenged i.p. with a mixture of LPS (from E. coli 0111:B4; 100 ng) and d-galactosamine (8 mg).
3) Survival is determined 24 hours after challenge. See procedure published in J. Exp. Med. 165:657 (1987)

TNF-α = assay: Inhibition of LPS-Induced TNF-α Production From the Murine Cell Line WEHI-265; type: cell-based; conditions: Mus musculus, WEHI-265 cells, 20-24 hours
Protocol: This test procedure is a standard test used to determine anti-TNF-α activity and to evaluate the usefulness of said compounds for counteracting the biological effects of TNF-α.
1. In Vitro Study: Inhibition of LPS-Induced TNF-α Production From the Murine Cell Line WEHI-265
1) Cells (obtained from cell cultures containing ≤10^6 cells/ml) are suspended at 0.2×10^6 cells/ml in complete medium (RPMI1640, with 10% FCS, 10^-5 M 2-ME, 2 mM glutamine and 10 mM HEPES buffer) and plated in CoStar 24 well plates (1.0 ml/well).
2) Compounds are dissolved in the appropriate vehicle at 400 times the concentration to be tested, and 5 μl of compound is added to the wells.
3) LPS (from E. coli 0111:B4) is diluted to 6 μg/ml and 1.0 ml is added to wells.
4) Plates are incubated 20-24 hours in 37° CO02 incubator.
5) Supernatant fluids are collected and analyzed for TNF content as described in J. ImmunoL, 142:3884.

| Compound | inhibition in vivo at 25 mg/kg (serum TNF) [%] | # dead/total at 25 mg/kg [1] | inhibition at 10 µM (TNF-α) [%] |
| --- | --- | --- | --- |
| CCOC1(CCN2CCCC2)c2ccccc2COc2ccccc21 (centres unmarked) [Compound IM, 1-[2-(11-ethoxy-6,11-dihydrodibenz[b,e]oxepin-11-yl)ethyl]pyrrolidine] | 58 | 1/8 | 54 |
| CCOCC1(CN(C)C)c2ccccc2CCc2ccccc21 [IZ] | 0 | 8/10 | 37 |
| CCOC(=O)CN(C)CCC1(OCC)c2ccccc2CCc2ccccc21 [IHH] | – | – | 40 |
| CCOC1(CCN(C)C(=O)c2cc[n+]([O-])cc2)c2ccccc2CCc2ccccc21 [IT] | – | 9/9 | 14 |
| CCOC1(CCNC)c2ccccc2COc2ccccc21 (centres unmarked) [Compound IU] | 21 | 8/9 | 25 |
| CCOC1(CCN(C)C)c2ccccc2COc2ccccc21 (centres unmarked) [IB] | 70 | 0/9 | 33 |
| C=CCC1(CCN2CCCC2)c2ccccc2CCc2ccccc21 [IO] | 47 | 5/9 | 66 |
| C=CCC1(CCN(C)C(C)=O)c2ccccc2CCc2ccccc21 [IR] | 36 | – | 61 |
| CCCC1(CN(C)C)c2ccccc2CCc2ccccc21 [Compound ISS, 10,11-dihydro-N,N-dimethyl-5-propyl-5H-dibenzo[a,d]cyclohepten-5-methanamine] | – | – | 67 |
| C=CCC1(CCN(C)C)c2ccccc2CCc2ccc(Cl)cc21 (centres unmarked) [IPP] | – | – | 52 |
| C=CCC1(CCN2CCCC2C(=O)O)c2ccccc2CCc2ccccc21 (centres unmarked) [Compound IVV, 1-[2-[10,11-dihydro-5-(2propenyl)-5H-dibenzo[a,d]cyclohepten-5-yl]ethyl]-2-pyrrolidinecarboxylic acid] | – | – | 14 |
| CCCC1(CCCN(C)C)c2ccccc2CCc2ccccc21 [Compound IG, 10,11-dihydro-N,N-dimethyl5-propyl-5H-dibenzo[a,d]cycloheptenep] | – | – | 60 |
| ON=CCC1(CC2CC2)c2ccccc2CCc2ccccc21 [IRR] | 38 | – | 48 |
| CCOC1(CCN(C)S(=O)(=O)c2ccccc2)c2ccccc2CCc2ccccc21 [IW] | – | 8/10 | 47 |
| CCOC1(CCN(C)S(C)(=O)=O)c2ccccc2CCc2ccccc21 [Compound IN, N-[2-(5-ethoxy-10,11-dihydro-5H-dibenzo[a,d]cycloheptenyl)ethyl]-N-methyl-methanesulfonamide] | – | 6/9 | 19 |
| CCOC1(CCN(C)CC(=O)O)c2ccccc2CCc2ccccc21 [IKK] | – | – | 13 |
| CCOC1(CCN(C)C)c2ccccc2CCc2ccc(Cl)cc21 (centres unmarked) [Compound IS] | – | 3/10 | – |
| CCCC1(CCN2CCCC2)c2ccccc2CCc2ccccc21 [IP] | 52 | 9/9 | 44 |
| CN(C)CCC1(C)c2ccccc2CCc2ccccc21 [IOO] | – | – | 16 |
| C=CCC1(CCN(C)C)c2ccccc2CCc2ccccc21 [Compound IE, 10,11-dihydro-N,N-dimethyl-5-(2-propenyl)-5H-dibenzo[a,d]cycloheptene-5-(2-ethanamine)] | 48 | 0/9 | 67 |
| CN(C)CCC1(CC2CC2)c2ccccc2CCc2ccccc21 [IF] | 34 | – | 68 |
| CCOC1(CCN2Cc3ccccc3C2)c2ccccc2CCc2ccccc21 [Compound IL, 2-[2-[5-ethoxy-10,11-dihyd] | – | – | 53 |
| C=CCC1(CCN2CCN(C)CC2)c2ccccc2CCc2ccccc21 [IQ] | – | – | 68 |

| Compound | inhibition in vivo at 25 mg/kg (serum TNF) [%] | # dead/total at 25 mg/kg [1] | inhibition at 10 µM (TNF-α) [%] |
| --- | --- | --- | --- |
| CCCC1(CCN(C)C)c2ccccc2COc2ccccc21 (centres unmarked) [ID] | 67 | – | 62 |
| CCOCC1(CCNC)c2ccccc2CCc2ccccc21 [IBB] | 34 | 10/10 | 45 |
| C=CCC1(CC=NO)c2ccccc2CCc2ccccc21 [Compound IUU, 2-[10,11-dihydro. 5-(2-propenyl)-5H-dibenzo[a,d]cyclohepten-5-yl]-ethanone oxime] | – | – | 29 |
| CCCC1(CCNC)c2ccccc2CCc2ccccc21 [IDD] | 31 | 9/10 | 59 |
| CCOC1(CCN(C)C)c2ccccc2CCc2ccccc21 [Compound IA, 5-ethoxy-5-dimethylaminoethyl-10,11-dihydro-5H-dibenzo[a,d]cycloheptene] | 69 | 0/8 | 51 |
| C=CCC1(CCN(C)C)c2ccccc2COc2ccccc21 (centres unmarked) [IMM] | 32 | 0/10 | 70 |
| CCCC1(CCN(C)C)c2ccccc2CCc2ccccc21 [Compound IC, 10,11-dihydro-N,N-dimethyl-5-propyl-5H-dibenzo[a,d]cycloheptene-5-(2-ethanamine)] | 65 | 1/9 | 60 |
| CCOC1(CCN(C)CCOCCO)c2ccccc2CCc2ccccc21 [IJJ] | – | – | 53 |
| CCOC(=O)N(C)CCC1(OCC)c2ccccc2CCc2ccccc21 [Compound IV] | – | – | 34 |
| CCOC1(CCN(C)C(=O)c2ccc(C(=O)O)cc2)c2ccccc2CCc2ccccc21 [Compound IGG, 4-[[N-[2-[5-ethoxy-10,11-dihydro-5H-dibenzo[a,d]cyclohepten-5-yl]ethyl]-N-methyl]oxo]benzoic acid] | 0 | 10/10 | 4 |
| C=CCC1(CCNC)c2ccccc2CCc2ccccc21 [IAA] | 38 | 5/10 | 56 |
| CCOCC1(CNC(C)=O)c2ccccc2CCc2ccccc21 [IY] | – | – | 17 |
| CCOCC1(CN)c2ccccc2CCc2ccccc21 [IX] | 3 | 9/10 | 29 |
| CCCC1(CCC=NO)c2ccccc2CCc2ccccc21 [ITT] | – | – | 4 |
| CCOC1(CCN(C)C(C)=O)c2ccccc2CCc2ccccc21 [IJ] | – | 8/8 | 48 |
| C=CCCC1(CCN(C)C)c2ccccc2CCc2ccccc21 [INN] | – | – | 75 |
| CCCC1(CCN(C)C)c2ccccc2CCc2ccc(Cl)cc21 (centres unmarked) [IQQ] | – | – | 42 |
| CCOC1(CCN(C)C(=O)c2ccc(C(=O)OC)cc2)c2ccccc2CCc2ccccc21 [IFF] | 0 | 9/9 | 44 |
| CCCC1(CN)c2ccccc2CCc2ccccc21 [Compound IH, 10,11-dihydro-5-propyl-5H-dibenzo[a,d]cycloheptene-5-methanamine] | – | – | 77 |
| CCOC1(CCNC)c2ccccc2CCc2ccccc21 [IK] | 40 | 0/9 | 60 |
| C=CCC1(CCNC)c2ccccc2COc2ccccc21 (centres unmarked) [ILL] | 44 | 3/10 | 50 |
| CCOCC1(CCN(C)C)c2ccccc2CCc2ccccc21 [IEE] | 38 | 8/10 | 23 |
| C=CCC1(CCN(C)C(=O)OCC)c2ccccc2CCc2ccccc21 [Compound ICC] | – | – | 42 |
